The results in this text go back to patent US5654296A, “Condensed heterocyclic compounds, their production and use” (priority 1994, dated 1997).

In general, IC50 refers to the concentration needed to halve the response being measured.

Holding throughout (format): biochemical
The test system of one assay is serotonine (5-HT) uptake. Put plainly: Activity to inhibit serotonine (5-HT) uptake. As to conditions: rat whole brain; 3H-5-HT 10 nM; 37° C.; pH 7.4; read-out: 5-HT uptake inhibitory activity (IC50 μM). Here is the method: (a) Activity to inhibit serotonine (5-HT) uptake
(§1) The experiment was performed in accordance with the method of Hyttel et al. [Psychopharmacology 60, 13, 1978]. The whole brain of a rat was homogenized in 40 volumes of ice-cooled 0.32M sucrose solution containing 10 μM pargyline and, then, centrifuged (600×G) for 10 minutes. The supernatant was centrifuged (2500×G) for 55 minutes to provide a pellet. This pellet was suspended in Krebs-Ringer-phosphate buffer (pH 7.4; 122 mM NaCl, 4.82 mM KCl, 0.972 mM CaCl2, 1.21 mM MgSO4, 12.7 mM Na2 HPO4, 2.97 mM NaH2 PO4, 0.162 mM EDTA sodium, 10 mM glucose, 1.14 mM ascorbic acid) saturated with a mixed gas (95% O and 5% CO2). To 900 μl of this suspention was added a solution of the test drug (10 μl) in DMSO and the mixture was incubated at 37° C. for 5 minutes. Then, 100 μl of ^3 H-5-HT (final concentration 10 nM) was added and the mixture was further incubated at 37° C. for 5 minutes. This reaction mixture was filtered under suction using a GF/B filter and the filter was washed with 4 ml of the above-mentioned buffer. The radioactivity on the filter was measured by the liquid scintillation method.
The amount of the drug which caused a 50% decrease in 5-HT uptake is shown as 50% inhibitory activity (IC50) in Table 42.

The subject of assay [1] is 45Ca2+ uptake (veratrine-stimulated, rat cerebral cortex crude synaptosome fraction). In words: 45Ca2+ uptake inhibition experiment. As to conditions: 30 μM veratrine, 37° C., 10 minutes, read-out: 45Ca2+ uptake inhibitory activity (IC50 μM). The procedure:
The rat cerebral cortex was homogenized in 10 volumes of ice-cooled 0.32M sucrose solution to prepare a crude synaptosome fraction (100×G, 10 min., 12000×G, 20 min.). […] To 900 μl of the homogenate was added a DMSO solution of the test drug (10 μl). The mixture was incubated at 37° C. for 10 minutes, followed by addition of 100 μl of a veratrine solution (containing 0.18 uci ^45 Ca^2+) at a final veratrine concentration of 30 μM. The mixture was incubated at 37° C. for 10 minutes, quenched with 4 ml of ice-cooled EGTA solution (120 mM sodium chloride, 5 mM potassium chloride, 5 mM EGTA, pH=7.5) and suction-filtered using a GF/B filter. The filter was washed twice with 4 ml each of a washing solution (132 mM sodium chloride, 5 mM potassium chloride, 1.3 mM magnesium chloride, 1.2 mM calcium, chloride, 20 mM Tris base, pH 7.5) and the radioactivity of […] was measured by the liquid scintillation method.
The ^45 Ca^2+ uptake inhibition rate was calculated by means of the following equation. [formula] A: The ^45 Ca^2+ uptake after 10 minutes' stimulation with 30 μM veratrine in the presence of the test drug
B: The ^45 Ca^2+ uptake in the absence of veratrine and in the presence of the test drug
C: The ^45 Ca^2+ uptake after 10 minutes' stimulation with 30 μM veratrine in the absence of the test drug
D: The ^45 Ca^2+ uptake in the absence of the test drug and in the absence of veratrine

Assay [2] relates to norepinephrine (NE) uptake. Put plainly: Activity to inhibit norepinephrine (NE) uptake. Particulars: rat cerebral cortex; 3H-NE; read-out: NE uptake inhibitory activity (IC50 μM). The procedure: as §1
(b) Activity to inhibit norepinephrine (NE) uptake
Using the rat cerebral cortex and, as the substrate, ^3 H-NE, an experiment was performed by otherwise the same procedure as described for 5-HT.

Structures can show the parent of a compound that is named as a salt.

As for `CN(CCCC1(c2ccccc2)CN(C(=O)Nc2ccccc2)Cc2ccccc21)Cc1ccccc1` (stereo not drawn) [IV-19, 4-[3-(N-Benzyl-N-methylamino)propyl]-4-phenyl-2-phenylcarbamoyl-1,2,3,4-tetrahydroisoquinoline hydrochloride], the IC50 in the assay on serotonine (5-HT) uptake came out at 0.23 µM; in assay [1], 0.95 µM; in assay [2], 0.56 µM.

In the case of `COc1cccc(NC(=O)N2Cc3ccccc3C(CCN3CCN(c4ccc(F)cc4)CC3)(c3ccccc3)C2)c1` (stereo not drawn) [IV-20, 1,2,3,4-Tetrahydro-4-{2-[4-(p-fluorophenyl)piperazin-1-yl]ethyl}-2-(3-methoxyphenyl)carbamoyl-4-phenylisoquinoline hydrochloride], the figures for the IC50 (in the assay with serotonine (5-HT) uptake; in assay [1]; in assay [2]) were 0.03 µM, 0.17 µM and 0.12 µM, respectively.
